Measurements from patent US20240390448A1, “USE OF TRADITIONAL CHINESE MEDICINE COMPOSITION IN PREPARATION OF DRUGS FOR TREATING NEUROGENIC PULMONARY EDEMA” (SHANDONG NEW TIME PHARMACEUTICAL CO., LTD., priority 2021, published 2024).

Test system: spinal cord injury-induced neurogenic pulmonary edema
Experiment: Model of spinal cord injury-induced neurogenic pulmonary edema (laminectomy and spinal cord injury)
Type: in vivo, ICR mice
Settings: mice, example 1 granule 18 g/kg intragastric, dexamethasone 0.025 mg/kg intramuscular, 2 consecutive days from 24 h after molding, lungs taken on 3rd day, n = 8, x ± s
From the text: It is a typical molding method of an animal with neurogenic pulmonary edema by performing laminectomy on a rate to cause spine injury and thus inducing pulmonary edema of the mouse. The molding method is simple and easy to implement and high in success rate.
4-6 week old male ICR mice weighed 23-25 g were provided by the Lunan Pharmaceutical Co., Ltd and adaptively fed for one week before an experiment.
40 mice were taken and randomly divided into a sham surgery group, a model group, a dexamethasone group, an example 1 granule group, and a dexamethasone+example 1 granule group, with 8 mice in each group. The rats in the sham surgery group were subjected to laminectomy without spinal cord injury, while the rats in the model group and each administration group were subjected to laminectomy and spinal cord injury. […] The animals were anesthetized and sacrificed on the 3rd of the molding, the lungs were taken out, the wet weight was weighed, the lungs were placed in a 60° C. oven for drying for 48 h and taken out, the dry weight was weighed, and a ratio of wet weight/dry weight was calculated.

## C[C@@H]1C[C@H]2[C@@H]3CCC4=CC(=O)C=C[C@]4(C)[C@@]3(F)[C@@H](O)C[C@]2(C)[C@@]1(O)C(=O)CO [Dexamethasone, dexamethasone]
  Lung wet weight/dry weight: 4.92 ± 0.13
